This passage reports IC50 results from patent US4870183A, “Novel amino acid derivatives” (priority 1986, dated 1989).

Read-outs that look alike come from different tables or passages of the source.

The target in one assay is T1, human renin (Homo sapiens, UniProt P00797).
T1 sequence (P00797 67-406): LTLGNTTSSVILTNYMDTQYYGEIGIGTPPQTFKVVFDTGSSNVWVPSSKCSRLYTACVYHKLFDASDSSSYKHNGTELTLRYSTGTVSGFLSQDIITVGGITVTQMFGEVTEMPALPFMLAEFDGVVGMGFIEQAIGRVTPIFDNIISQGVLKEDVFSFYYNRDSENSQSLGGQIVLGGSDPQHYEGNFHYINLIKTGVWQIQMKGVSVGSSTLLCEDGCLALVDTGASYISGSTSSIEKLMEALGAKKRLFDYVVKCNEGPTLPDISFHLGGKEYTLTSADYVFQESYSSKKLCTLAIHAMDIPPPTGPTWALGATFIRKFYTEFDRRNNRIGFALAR
Briefly: Inhibitory effect on human renin-sheep renin substrate reaction system in vitro. Type of assay: biochemical. The method, then: Inhibitory effect on human renin-sheep renin substrate reaction system in vitro
The mixture was incubated for 15 minutes on a water bath at 37° C., and the reaction mixture was allowed to stand for 5 minutes on a water bath at 100° C. to stop the reaction. After cooling, 200 μl of the solution was taken up and the amount of angiotensin I produced by the addition of renin was determined by radioimmunoassay using renin riabead kit (DAINABOT).
The inhibitory effect was calculated by the following equation.
As a control, the same procedure as above was carried out by using 50 μl of dimethyl sulfoxide alone in place of the 50 μl of dimethyl sulfoxide solution containing an amino acid compound of the present invention. [formula]

The target of assay [1] is T2, renin in human high renin plasma (Homo sapiens, UniProt P00797).
T2 construct: from tissue; host or cells: human high renin plasma
T2 sequence (P00797 67-406): T1 sequence (P00797 67-406)
Kind of assay: Renin inhibitory effect in a human high renin plasma. It counts as biochemical. The method, then:
Renin Inhibitory Effect in a Human High Renin Plasma
Two hundred μl of the mixture was placed on an ice bath, at 4° C., and remaining mixture (800 μl) was incubated for 60 minutes at 37° C. on a water bath. Two hundred μl of the incubated remaining mixture was chilled immediately on an ice bath, and the amount (A) of angiotensin I produced was determined by radioimmunoassay using renin riabead kit (DAINABOT).
The amount (B) of angiotensin I in the mixture placed on an ice bath at 4° C. was also determined by radioimmunoassay.
As a control, the same procedure as above was carried out by using 100 μl of dimethyl sulfoxide alone in place of 100 μl of dimethyl sulfoxide solution containing an amino acid compound of the present invention.
The net amount was estimated as the difference between A and B.
The inhibitory effect was calculated by the following equation. [formula]

[2] abbreviates: human renin-sheep renin substrate system, pH 7.4, 37° C., 15 minutes, read-out: IC50 molar concentration.
The mark [3] stands for this setting: human high renin plasma, pH 7.0, 37° C., 60 minutes, read-out: IC50 molar concentration.

As to `CC(C)OC(=O)C(O)[C@H](CC1CCCCC1)NC(=O)[C@H](Cc1c[nH]cn1)NC(=O)C(Cc1ccccc1C(F)(F)F)Cc1ccccc1C(F)(F)F` (mixture of isomers) [Compound B, (2RS, 3S)-3-{N-[Bis(2-trifluoromethylbenzyl)acetyl]-L-histidyl}amino-4-cyclohexyl-2-hydroxybutyric acid isopropyl ester], the IC50 amounted to 120 nM against human renin and 1200 nM in assay [1].

As for `CC(C)OC(=O)C(O)[C@H](CC1CCCCC1)NC(=O)[C@H](Cc1c[nH]cn1)NC(=O)C(Cc1cccc(F)c1)Cc1cccc(F)c1` (mixture of isomers) [Compound D, (2RS, 3S)-3-{N-[Bis(3-fluorobenzyl)acetyl]-L-histidyl}amino-4-cyclohexyl-2-hydroxybutyric acid isopropyl ester], the IC50 on human renin is 18 nM; in assay [1] it was 250 nM.

Turning to `CC(C)OC(=O)C(O)[C@H](CC1CCCCC1)NC(=O)[C@H](Cc1c[nH]cn1)NC(=O)C(Cc1ccccc1)Cc1ccccc1` (mixture of isomers) [Compound E, (2RS, 3S)-3-[N-(dibenzylacetyl)-L-histidyl}amino-4-cyclohexyl-2-hydroxybutyric acid isopropyl ester], the IC50 against human renin was 52 nM; in assay [1], 260 nM.

`Cc1cccc(C)c1CC(Cc1c(C)cccc1C)C(=O)N[C@@H](Cc1c[nH]cn1)C(=O)N[C@@H](CC1CCCCC1)C(O)C(=O)OC(C)C` (mixture of isomers) [Compound G, (2RS, 3S)-3-{N-[Bis(2,6-dimethylbenzyl)acetyl]-L-histidyl}amino-4-cyclohexyl-2-hydroxybutyric acid isopropyl ester]: the IC50 against human renin amounted to 900 nM; in assay [1], 3300 nM.

Regarding `CC(C)OC(=O)C(O)[C@H](CC1CCCCC1)NC(=O)[C@H](Cc1c[nH]cn1)NC(=O)C(Cc1ccccc1Br)Cc1ccccc1Br` (mixture of isomers) [Compound I, (2RS, 3S)-3-{N-[Bis(2-bromobenzyl)acetyl]-L-histidyl}amino-4-cyclohexyl-2-hydroxybutyric acid isopropyl ester], the figures for the IC50 (at human renin; in assay [1]) were 18 nM and 430 nM, respectively.

On to `CC(C)OC(=O)C(O)[C@H](CC1CCCCC1)NC(=O)[C@H](Cc1c[nH]cn1)NC(=O)C(Cc1ccc(Cl)cc1)Cc1ccc(Cl)cc1` (mixture of isomers) [Compound J, (2RS, 3S)-3-{N-[Bis(4-chlorobenzyl)acetyl]-L-histidyl}amino-4-cyclohexyl-2-hydroxybutyric acid isopropyl ester], for which the IC50 on human renin came out at 470 nM; in assay [1], 5900 nM.

Regarding `O=C(N[C@@H](Cc1c[nH]cn1)C(=O)N[C@@H](CC1CCCCC1)C(O)C(=O)OC1CCCC1)C(Cc1ccccc1)Cc1ccccc1` (mixture of isomers) [Compound K, (2RS, 3S)-3-[N-(dibenzylacetyl)-L-histidyl]amino-4-cyclohexyl-2-hydroxybutyric acid cyclopentyl ester], the IC50 at human renin stood at 18 nM; in assay [1] it was 280 nM.

In the case of `CC(C)OC(=O)C(O)[C@H](CC1CCCCC1)NC(=O)[C@H](Cc1c[nH]cn1)NC(=O)C(Cc1cccc2ccccc12)Cc1cccc2ccccc12` (mixture of isomers) [Compound L, (2RS, 3S)-3-{N-[Bis(1-naphthylmethyl)acetyl]-L-histidyl}amino-4-cyclohexyl-2-hydroxybutyric acid isopropyl ester], the IC50 was 49 nM at human renin and 430 nM in assay [1].

Regarding `Cc1cccc(CC(Cc2cccc(C)c2C)C(=O)N[C@@H](Cc2c[nH]cn2)C(=O)N[C@@H](CC2CCCCC2)C(O)C(=O)OC(C)C)c1C` (mixture of isomers) [Compound M, (2RS, 3S)-3-{N-[Bis(2,3-dimethylbenzyl)acetyl]-L-histidyl}amino-4-cyclohexyl-2-hydroxybutyric acid isopropyl ester], the IC50 was determined as 77 nM on human renin and 860 nM in assay [1].

Consider `O=C(N[C@@H](Cc1c[nH]cn1)C(=O)N[C@@H](CC1CCCCC1)C(O)C(=O)OC1CCCC1)C(Cc1ccccc1F)Cc1ccccc1F` (mixture of isomers) [Compound N, (2RS, 3S)-3-{N-[Bis(2-fluorobenzyl)acetyl]-L-histidyl}amino-4-cyclohexyl-2-hydroxybutyric acid cyclopentyl ester], for which the IC50 is 29 nM on human renin and 230 nM in assay [1].

For `Cc1cccc(CC(Cc2cccc(C)c2)C(=O)N[C@@H](Cc2c[nH]cn2)C(=O)N[C@@H](CC2CCCCC2)C(O)C(=O)OC(C)C)c1` (mixture of isomers) [Compound Q, (2RS, 3S)-3-{N-[Bis(3-methylbenzyl)acetyl]-L-histidyl}amino-4-cyclohexyl-2-hydroxybutyric acid isopropyl ester], the IC50 on human renin was determined as 60 nM; in assay [1] it was 540 nM.

With `COc1ccccc1CC(Cc1ccccc1OC)C(=O)N[C@@H](Cc1c[nH]cn1)C(=O)N[C@@H](CC1CCCCC1)C(O)C(=O)OC(C)C` (mixture of isomers) [Compound R, (2RS, 3S)-3-{N-[Bis(2-methoxybenzyl)acetyl]-L-histidyl}amino-4-cyclohexyl-2-hydroxybutyric acid isopropyl ester], the results for the IC50 (on human renin; in assay [1]) were 170 nM and 360 nM, respectively.

Take `CC(C)OC(=O)C(O)[C@H](CC1CCCCC1)NC(=O)[C@H](Cc1c[nH]cn1)NC(=O)C(Cc1ccccc1C#N)Cc1ccccc1C#N` (mixture of isomers) [Compound T, (2RS, 3S)-3-{N-[Bis(2-cyanobenzyl)acetyl]-L-histidyl}amino-4-cyclohexyl-2-hydroxybutyric acid isopropyl ester]: the IC50 against human renin was determined as 190 nM; in assay [1], 280 nM.

As to `CC(C)OC(=O)C(O)[C@H](CC1CCCCC1)NC(=O)[C@H](Cc1c[nH]cn1)NC(=O)C(Cc1ccc2c(c1)OCO2)Cc1ccc2c(c1)OCO2` (mixture of isomers) [Compound V, (2RS, 3S)-3-{N-[Bis(3,4-methylenedioxybenzyl)acetyl]-L-histidyl}amino-4-cyclohexyl-2-hydroxybutyric acid isopropyl ester], the IC50 at human renin was found to be 910 nM; in assay [1] it was 2600 nM.

`Cc1ccccc1CC(Cc1ccccc1C)C(=O)N[C@@H](Cc1c[nH]cn1)C(=O)N[C@@H](CC1CCCCC1)C(O)C(=O)OC(C)C` (mixture of isomers) [Compound W, (2RS, 3S)-3-{N-[Bis(2-methylbenzyl)-acetyl]-L-histidyl}amino-4-cyclohexyl-2-hydroxybutyric acid isopropyl ester]: the IC50 is 58 nM against human renin and 280 nM in assay [1].

Take `CC(C)CNC(=O)C(O)[C@H](CC1CCCCC1)NC(=O)[C@H](Cc1c[nH]cn1)NC(=O)C(Cc1cccc2c1OCO2)Cc1cccc2c1OCO2` (mixture of isomers) [Compound Y, (2RS, 3S)-3-{N-[Bis(2,3-methylenedioxybenzyl)acetyl]-L-histidyl}amino-4-cyclohexyl-2-hydroxybutyric acid isobutyl amide]: the IC50 against human renin came out at 1800 nM; in assay [1], 3400 nM.

Take `CC(C)OC(=O)C(O)[C@H](CC1CCCCC1)NC(=O)[C@H](Cc1c[nH]cn1)NC(=O)C(Cc1ccc(F)cc1)Cc1ccc(F)cc1` (mixture of isomers) [Compound O, (2RS, 3S)-3-{N-[Bis(4-fouorobenzyl)acetyl]-L-histidyl}amino-4-cyclohexyl-2-hydroxybutyric acid isopropyl ester]: the IC50 is 68 nM on human renin (setting [2]) and 1200 nM in assay [1] (setting [3]).

For `CC(C)OC(=O)C(O)[C@H](CC1CCCCC1)NC(=O)[C@H](Cc1c[nH]cn1)NC(=O)C(Cc1ccccc1O)Cc1ccccc1O` (stereo partly drawn) [Compound C, (2RS 3S)-3-{N-[Bis(2-hydroxybenzyl)acetyl]-L-histidyl}amino-4-cyclohexyl-2-hydroxybutyric acid isopropyl ester], the IC50 on human renin (setting [2]) is 180 nM; in assay [1] (setting [3]), 400 nM.

Regarding `O=C(N[C@@H](Cc1cnc[nH]1)C(=O)N[C@@H](CC1CCCCC1)C(O)C(=O)OC(CF)CF)C(Cc1ccccc1)Cc1ccccc1` (stereo partly drawn) [Compound P], the figures for the IC50 (at human renin; in assay [1]) were 19 nM and 130 nM, respectively.

Turning to “(2RS, 3)-3-{N-[Bis(2-fluorobenzyl)acetyl]-L-histidyl}amino-4-cyclohexyl ester [Compound S]”, the IC50 at human renin (setting [2]) is 62 nM; in assay [1] (setting [3]), 430 nM.

Turning to “(2RS, 3S)-3-{N-[Bis(2-chlorobenzyl)acetyl]-L-histidyl}amino-4-cyclohexyl-2-hydroxybutyric acid butyric acid isopropyl ester [Compound U]”, the IC50 on human renin (setting [2]) came to 63 nM; in assay [1] (setting [3]), 430 nM.
